Measured values from patent publication US9090628B2, “Benzoxazepin compounds selective for PI3K P110 delta and methods of use” (GENENTECH, INC., priority 2011, dated 2015).

Experiments:
p110 delta = p110 delta (Homo sapiens (Human), UniProt O00329); assay: PI3K isoform inhibition assay, p110 delta (fluorescence polarization displacement); format: biochemical
p110 alpha = p110 alpha (Homo sapiens (Human), UniProt P42336); assay: PI3K isoform inhibition assay, p110 alpha (for alpha/delta selectivity); settings: ratio of biochemical IC50 values
Summary of the method: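 Fluorescence polarization displacement of a fluorescent PIP3 probe from GRP-1 detector by PI3K-formed PIP3; p110α/p85α at 40 ng/mL with 10 μM PIP2 substrate.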

Sequence of p110 delta (O00329 whole entry, canonical isoform): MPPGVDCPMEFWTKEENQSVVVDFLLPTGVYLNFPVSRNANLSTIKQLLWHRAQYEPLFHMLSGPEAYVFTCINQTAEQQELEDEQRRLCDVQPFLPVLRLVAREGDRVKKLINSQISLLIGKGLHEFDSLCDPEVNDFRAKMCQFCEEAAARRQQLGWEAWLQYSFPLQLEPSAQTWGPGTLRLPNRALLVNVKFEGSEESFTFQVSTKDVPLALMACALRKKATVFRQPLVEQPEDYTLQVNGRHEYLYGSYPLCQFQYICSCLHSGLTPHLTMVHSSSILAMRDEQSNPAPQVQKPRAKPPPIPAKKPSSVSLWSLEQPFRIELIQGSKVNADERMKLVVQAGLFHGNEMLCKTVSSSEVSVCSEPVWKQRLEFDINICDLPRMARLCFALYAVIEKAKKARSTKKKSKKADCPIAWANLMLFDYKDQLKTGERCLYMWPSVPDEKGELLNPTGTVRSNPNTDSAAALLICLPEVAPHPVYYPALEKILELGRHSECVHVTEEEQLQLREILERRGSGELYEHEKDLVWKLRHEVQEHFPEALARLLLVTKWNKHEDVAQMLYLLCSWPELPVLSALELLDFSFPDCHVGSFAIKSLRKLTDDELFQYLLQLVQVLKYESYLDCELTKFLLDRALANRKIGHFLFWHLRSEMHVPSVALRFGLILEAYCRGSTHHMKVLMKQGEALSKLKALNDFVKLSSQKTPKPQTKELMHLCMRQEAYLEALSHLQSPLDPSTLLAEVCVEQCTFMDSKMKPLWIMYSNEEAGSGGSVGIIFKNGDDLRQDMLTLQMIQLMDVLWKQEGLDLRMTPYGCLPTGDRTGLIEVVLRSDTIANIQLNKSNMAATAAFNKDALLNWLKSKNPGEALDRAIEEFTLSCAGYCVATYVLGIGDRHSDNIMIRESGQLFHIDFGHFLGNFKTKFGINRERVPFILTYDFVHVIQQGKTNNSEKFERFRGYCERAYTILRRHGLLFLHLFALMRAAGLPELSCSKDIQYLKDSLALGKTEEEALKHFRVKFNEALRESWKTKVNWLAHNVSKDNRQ
Sequence of p110 delta (P27986 whole entry partner, canonical isoform): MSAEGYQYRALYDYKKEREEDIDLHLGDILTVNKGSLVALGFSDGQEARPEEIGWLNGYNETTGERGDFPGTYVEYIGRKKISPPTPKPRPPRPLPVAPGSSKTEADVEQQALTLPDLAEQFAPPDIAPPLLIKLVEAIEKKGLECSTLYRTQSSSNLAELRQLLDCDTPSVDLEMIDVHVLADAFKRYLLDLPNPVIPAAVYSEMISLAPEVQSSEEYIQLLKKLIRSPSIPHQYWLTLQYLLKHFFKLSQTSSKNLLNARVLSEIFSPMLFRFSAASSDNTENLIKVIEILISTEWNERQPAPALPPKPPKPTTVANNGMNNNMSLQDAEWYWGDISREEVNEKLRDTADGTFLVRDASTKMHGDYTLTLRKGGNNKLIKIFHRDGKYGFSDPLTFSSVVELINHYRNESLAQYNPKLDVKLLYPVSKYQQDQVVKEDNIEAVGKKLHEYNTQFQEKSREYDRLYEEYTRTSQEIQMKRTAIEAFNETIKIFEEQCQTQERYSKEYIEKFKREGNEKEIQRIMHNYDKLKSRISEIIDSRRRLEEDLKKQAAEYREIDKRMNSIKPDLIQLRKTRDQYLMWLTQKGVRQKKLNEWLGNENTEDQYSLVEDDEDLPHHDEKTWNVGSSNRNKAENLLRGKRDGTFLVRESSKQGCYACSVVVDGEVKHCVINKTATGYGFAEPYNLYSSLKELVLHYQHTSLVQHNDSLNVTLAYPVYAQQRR
Sequence of p110 alpha (P42336 whole entry, canonical isoform): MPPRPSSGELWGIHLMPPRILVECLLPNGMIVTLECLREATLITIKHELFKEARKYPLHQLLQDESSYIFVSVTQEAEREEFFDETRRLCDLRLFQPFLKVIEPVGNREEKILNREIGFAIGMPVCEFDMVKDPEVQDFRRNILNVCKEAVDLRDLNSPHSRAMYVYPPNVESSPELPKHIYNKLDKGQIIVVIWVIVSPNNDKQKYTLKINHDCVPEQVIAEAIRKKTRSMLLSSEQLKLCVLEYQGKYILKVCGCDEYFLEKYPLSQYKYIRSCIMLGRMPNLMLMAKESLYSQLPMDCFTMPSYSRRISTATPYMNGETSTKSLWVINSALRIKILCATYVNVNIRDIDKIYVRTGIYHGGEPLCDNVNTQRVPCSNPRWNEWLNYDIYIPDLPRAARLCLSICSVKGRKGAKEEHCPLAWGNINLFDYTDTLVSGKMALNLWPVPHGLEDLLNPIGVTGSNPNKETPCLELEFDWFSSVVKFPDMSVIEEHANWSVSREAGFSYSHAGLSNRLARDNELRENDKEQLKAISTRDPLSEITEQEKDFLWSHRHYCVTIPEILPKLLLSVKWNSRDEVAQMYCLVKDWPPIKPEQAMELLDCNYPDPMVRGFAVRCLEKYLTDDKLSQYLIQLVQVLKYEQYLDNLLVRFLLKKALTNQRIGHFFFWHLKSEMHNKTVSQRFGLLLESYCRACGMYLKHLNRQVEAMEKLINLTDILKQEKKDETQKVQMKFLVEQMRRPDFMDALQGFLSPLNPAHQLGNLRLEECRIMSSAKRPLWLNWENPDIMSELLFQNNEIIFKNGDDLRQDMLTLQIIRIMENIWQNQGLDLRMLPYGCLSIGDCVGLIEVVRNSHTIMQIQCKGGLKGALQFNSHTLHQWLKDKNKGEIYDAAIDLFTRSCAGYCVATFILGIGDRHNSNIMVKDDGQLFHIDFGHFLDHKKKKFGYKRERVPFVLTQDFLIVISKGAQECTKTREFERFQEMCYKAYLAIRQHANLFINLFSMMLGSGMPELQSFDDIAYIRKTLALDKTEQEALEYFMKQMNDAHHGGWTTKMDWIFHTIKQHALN
Sequence of p110 alpha (P27986 whole entry partner, canonical isoform): as the sequence (P27986 whole entry partner, canonical isoform) above

SMILES | IC50 (p110 delta) [nM] | IC50 p110 alpha/IC50 p110 delta (p110 alpha)
Cc1nc(-c2cn3c(n2)-c2cc(-c4ccnn4[C@@H]4CCCN(C(C)C)C4)c(F)cc2OCC3)n(C(C)C)n1 [Example 315, (R)-9-fluoro-2-(1-isopropyl-3-methyl-1H-1,2,4-triazol-5-yl)-10-(1-(1-isopropylpiperidin-3-yl)-1H-pyrazol-5-yl)-5,6-dihydrobenzo[f]imidazo[1,2-d][1,4]oxazepine] | 0.44 | 25.8
Cc1nc(-c2cn3c(n2)-c2cc([C@H](C)N4CCN(C(C)(C)C)CC4)ncc2OCC3)n(C(C)C)n1 [Example 303, (S)-10-(1-(4-tert-butylpiperazin-1-yl)ethyl)-2-(1-isopropyl-3-methyl-1H-1,2,4-triazol-5-yl)-5,6-dihydroimidazo[1,2-d]pyrido[4,3-f][1,4]oxazepine] | 1.92 | 113
Cc1nc(-c2cn3c(n2)-c2ccc(OC4CC(C)CN(C(C)C)C4)cc2OCC3)n(C(C)C)n1 (centres unmarked) [Example 260, 2-(1-isopropyl-3-methyl-1H-1,2,4-triazol-5-yl)-9-(1-isopropyl-5-methylpiperidin-3-yloxy)-5,6-dihydrobenzo[f]imidazo[1,2-d][1,4]oxazepine] | 2.56 | 12.8
Cc1nc(-c2cn3c(n2)-c2cc(C(C)N4CCN(CC(C)(C)O)CC4)c(C)cc2OCC3)n(C(C)C)n1 (centres unmarked) [Example 349, 1-[4-[1-[2-(2-isopropyl-5-methyl-1,2,4-triazol-3-yl)-9-methyl-5,6-dihydroimidazo[1,2-d][1,4]benzoxazepin-l0-yl]ethyl]piperazin-1-yl]-2-methyl-propan-2-ol] | 4.21 | 18.1
Cc1nc(-c2cn3c(n2)-c2ccc(OC4(C)CCN(C(C)C)C4)cc2OCC3)n(C(C)C)n1 (centres unmarked) [Example 261, 2-(1-isopropyl-3-methyl-1H-1,2,4-triazol-5-yl)-9-(1-isopropyl-3-methylpyrrolidin-3-yloxy)-5,6-dihydrobenzo[f]imidazo[1,2-d][1,4]oxazepine] | 0.638 | 14.4
Cc1nc(-c2cn3c(n2)-c2ccc(-c4cnc(C)n4C4CCCN(C(C)C)C4)cc2OCC3)n(C(C)C)n1 (centres unmarked) [Example 317, 2-(2-isopropyl-5-methyl-1,2,4-triazol-3-yl)-9-[3-(1-isopropyl-3-piperidyl)-2-methyl-imidazol-4-yl]-5,6-dihydroimidazo[1,2-d][1,4]benzoxazepine] | 6.51 | 22.3
Cc1nc(-c2cn3c(n2)-c2ccc(OC4(C)CNC4)cc2OCC3)n(C(C)C)n1 [Example 271, 2-(2-isopropyl-5-methyl-1,2,4-triazol-3-yl)-9-(3-methylazetidin-3-yl)oxy-5,6-dihydroimidazo[1,2-d][1,4]benzoxazepine] | 0.633 | 9.8
Cc1nc(-c2cn3c(n2)-c2ccc(-n4ccnc4C4CCCN(C(C)C)C4)cc2OCC3)n(C(C)C)n1 (centres unmarked) [Example 369, 2-(2-isopropyl-5-methyl-1,2,4-triazol-3-yl)-9-[2-(1-isopropyl-3-piperidyl)imidazol-1-yl]-5,6-dihydroimidazo[1,2-d][1,4]benzoxazepine] | 3.09 | 40.4
Cc1nc(-c2cn3c(n2)-c2ccc(-c4cnn(C(C)C)c4CN4CCN(C)CC4)cc2OCC3)n(C(C)C)n1 [Example 278, 9-[1-isopropyl-5-[(4-methylpiperazin-1-yl)methyl]pyrazol-4-yl]-2-(2-isopropyl-5-methyl-1,2,4-triazol-3-yl)-5,6-dihydroimidazo[1,2-d][1,4]benzoxazepine] | 3.34 | 33.4
Cc1nc(-c2cn3c(n2)-c2ccc(-c4ccnn4C4CCN(C(C)C)CC4)cc2OCC3)n(C(C)C)n1 [Example 296, 2-(2-isopropyl-5-methyl-1,2,4-triazol-3-yl)-9-[2-(1-isopropyl-4-piperidyl)pyrazol-3-yl]-5,6-dihydroimidazo[1,2-d][1,4]benzoxazepine] | 1.06 | 31.5
CC(C)n1ncnc1-c1cn2c(n1)-c1cnc(N3CCCC3C3CCN(C)CC3)cc1OCC2 (centres unmarked) [Example 106, 2-(1-isopropyl-1H-1,2,4-triazol-5-yl)-9-(2-(1-methylpiperidin-4-yl)pyrrolidin-1-yl)-5,6-dihydroimidazo[1,2-d]pyrido[3,4-f][1,4]oxazepine] | 0.541 | 25.7
Cc1nc(-c2cn3c(n2)-c2cc(-c4cnn(C)c4C4CC(N(C)C)CCO4)c(F)cc2OCC3)n(C(C)C)n1 (centres unmarked) [Example 354, 2-[4-[9-fluoro-2-(2-isopropyl-5-methyl-1,2,4-triazol-3-yl)-5,6-dihydroimidazo[1,2-d][1,4]benzoxazepin-10-yl]-2-methyl-pyrazol-3-yl]-N,N-dimethyl-tetrahydropyran-4-amine] | 0.66 | 14.5
Cc1nc(-c2cn3c(n2)-c2ccc(N4CCCC4C4CCCCN4C)cc2OCC3)n(C(C)C)n1 (centres unmarked) [Example 323, 2-(2-isopropyl-5-methyl-1,2,4-triazol-3-yl)-9-[2-(1-methyl-2-piperidyl)pyrrolidin-1-yl]-5,6-dihydroimidazo[1,2-d][1,4]benzoxazepine] | 1.94 | 11.7
CC(C)n1nc(N)nc1-c1cn2c(n1)-c1ccc(-c3ccnn3C3CCN(C(C)(C)C)CC3)cc1OCC2 [Example 327, 5-[9-[2-(1-tert-butyl-4-piperidyl)pyrazol-3-yl]-5,6-dihydroimidazo[1,2-d][1,4]benzoxazepin-2-yl]-1-isopropyl-1,2,4-triazol-3-amine] | 3.89 | 20.8
CCN(CC)C1CCOC(c2c(-c3ccc4c(c3)OCCn3cc(-c5nc(C)nn5C(C)C)nc3-4)cnn2C)C1 (centres unmarked) [Example 339, N,N-diethyl-2-[4-[2-(2-isopropyl-5-methyl-1,2,4-triazol-3-yl)-5,6-dihydroimidazo[1,2-d][1,4]benzoxazepin-9-yl]-2-methyl-pyrazol-3-yl]tetrahydropyran-4-amine] | 1.07 | 61.5
Cc1nc(-c2cn3c(n2)-c2ccc(N4CCCC45CCCN(C(C)C)C5)cc2OCC3)n(C(C)C)n1 (centres unmarked) [Example 337, 9-(7-isopropyl-1,7-diazaspiro[4.5]decan-1-yl)-2-(2-isopropyl-5-methyl-1,2,4-triazol-3-yl)-5,6-dihydroimidazo[1,2-d][1,4]benzoxazepine] | 1.52 | 47.9

Continued by falling IC50 (p110 delta), values first:

IC50 (p110 delta) [nM] | IC50 p110 alpha/IC50 p110 delta (p110 alpha) | SMILES
17.9 | 10.8 | Cc1nc(-c2cn3c(n2)-c2cc(C(O)C4CCN(C)CC4)ccc2OCC3)n(C(C)C)n1 (centres unmarked) [Example 276, [2-(2-isopropyl-5-methyl-1,2,4-triazol-3-yl)-5,6-dihydroimidazo[1,2-d][1,4]benzoxazepin-10-yl]-(1-methyl-4-piperidyl)methanol]
5.3 | 11.7 | COc1cc2c(cc1[C@H](C)N1CCN(C(C)(C)C)CC1)-c1nc(-c3nc(C)nn3C(C)C)cn1CCO2 [Example 371, 10-[(1S)-1-(4-tert-butylpiperazin-1-yl)ethyl]-2-(2-isopropyl-5-methyl-1,2,4-triazol-3-yl)-9-methoxy-5,6-dihydroimidazo[1,2-d][1,4]benzoxazepine]
4 | 27.8 | Cc1nc(-c2cn3c(n2)-c2ccc(-c4cnn(C(C)C)c4CN4CCN(C(C)(C)C)CC4)cc2OCC3)n(C(C)C)n1 [Example 277, 9-[5-[(4-tert-butylpiperazin-1-yl)methyl]-1-isopropyl-pyrazol-4-yl]-2-(2-isopropyl-5-methyl-1,2,4-triazol-3-yl)-5,6-dihydroimidazo[1,2-d][1,4]benzoxazepine]
2.9 | 23.9 | Cc1nc(-c2cn3c(n2)-c2ccc(OC4(CC5CC5)CNC4)cc2OCC3)n(C(C)C)n1 [Example 284, 9-[3-(cyclopropylmethyl)azetidin-3-yl]oxy-2-(2-isopropyl-5-methyl-1,2,4-triazol-3-yl)-5,6-dihydroimidazo[1,2-d][1,4]benzoxazepine]
2.81 | 26.3 | Cc1nc(-c2cn3c(n2)-c2ccc(N4CCCC4C4CCCN(C)C4)cc2OCC3)n(C(C)C)n1 (centres unmarked) [Example 319, 2-(2-isopropyl-5-methyl-1,2,4-triazol-3-yl)-9-[2-(1-methyl-3-piperidyl)pyrrolidin-1-yl]-5,6-dihydroimidazo[1,2-d][1,4]benzoxazepine]
0.865 | 104 | Cc1nc(-c2cn3c(n2)-c2cc([C@@H](C)N4CCN(C(C)C)CC4)c(C)cc2OCC3)n(C(C)C)n1 [Example 331, (R)-2-(1-isopropyl-3-methyl-1H-1,2,4-triazol-5-yl)-10-(1-(4-isopropylpiperazin-1-yl)ethyl)-9-methyl-5,6-dihydrobenzo[f]imidazo[1,2-d][1,4]oxazepine]
0.705 | 54.6 | CC(C)n1nc(N)nc1-c1cn2c(n1)-c1ccc(-c3ccnn3C3CCN(C)CC3)cc1OCC2 [Example 298, 1-isopropyl-5-[9-[2-(1-methyl-4-piperidyl)pyrazol-3-yl]-5,6-dihydroimidazo[1,2-d][1,4]benzoxazepin-2-yl]-1,2,4-triazol-3-amine]
0.445 | 31.4 | Cc1nc(-c2cn3c(n2)-c2ccc(N4CCCC4CN(C)C)cc2OCC3)n(C(C)C)n1 (centres unmarked) [Example 348, 1-[1-[2-(2-isopropyl-5-methyl-1,2,4-triazol-3-yl)-5,6-dihydroimidazo[1,2-d][1,4]benzoxazepin-9-yl]pyrrolidin-2-yl]-N,N-dimethyl-methanamine]
0.178 | 29.4 | Cc1nc(-c2cn3c(n2)-c2ccc(N4CCCC45CCCN(C)C5)cc2OCC3)n(C(C)C)n1 (centres unmarked) [Example 318, 2-(2-isopropyl-5-methyl-1,2,4-triazol-3-yl)-9-(7-methyl-1,7-diazaspiro[4.5]decan-1-yl)-5,6-dihydroimidazo[1,2-d][1,4]benzoxazepine]
